We go through three compounds from US8592368B2, “JAK/STAT inhibitors and MAPK/ERK inhibitors for RSV infection” (University of South Florida, priority 2003, dated 2013).

The test system of one data set is STAT-1α. Nature of the data set: STAT-1α phosphorylation in RSV-infected A549 cells (immunoblot). Format: cell-based, human. Conditions: for RSV-induced STAT-1α phosphorylation: A549 cells pre-incubated with AG490 (50 μM) or PD98059 for 4 hours, then RSV, densitometry of Western blot. As to the method:
(§1) FIGS. 4A-4F that blocking STAT-1α attenuates RSV gene transcription and infection. A549 cells were treated with 50 µM AG490 for 4 hours before being exposed to supRSV for 30 minutes. Lysates were separated by SDS-PAGE and immunoblotted using antibodies to phospho-STAT-1α and STAT-1α. The total number of syncytia-forming plaques (PFU/ml) was counted 72 hours post-infection. Each value represents means SEM (N=3, *p<0.001). Cell proliferation was determined by viable cell counts. A549 cells were cotransfected with the pRL-TK plasmid and either the WT (pRc/CMV STAT-1α) (lanes 1 and 2) or DN mutant (pRc/CMV STAT-1α) (Y701F) (lanes 3 and 4) and then exposed to supRSV for 30 minutes. Lysates were separated by SDS-PAGE and immunoblotted for phospho-STAT-1α or STAT-1α. A549 cells were transfected with WT or DN-STAT-1α constructs and 24 hours later exposed to RSV for 30 minutes. RSV replication was measured by RT-PCR analysis of N protein gene expression. The percentage of infected cells was determined using immunofluorescence in cells transfected with WT or DN-STAT-1α. The values are means SEM (*p<0.001).
FIGS. 8A-8D show the effects of inhibitors of phosphorylation of STAT-1α and ERK-1/2. In FIG. 8A, AG490- or PD98059-treated A549 cells were infected with RSV for 15 minutes. Total proteins were Western-blotted using specific anti-phospho antibodies to STAT-1α, ERK-1/2 or IκBα. Lane 1: mock-infected, lanes 2-4: RSV infected for 30 minutes, lane 3: cells treated with 50 μM of AG490 prior to RSV infection, lane 4: cells treated with 25 μM of PD98059 for 4 hours prior RSV infection. In FIG. 8B, the bands were quantified by densitometry and the relative intensity of phosphoSTAT-1α, phospho-ERK and phospho-IκBα with respect to uninfected control (lane 1) was determined. The experiment was repeated twice and the result of a representative experiment is shown. […] A549 cells were co-transfected with RL-TK plasmid and either the WT (pRc/CMV-STAT-1α) (lanes 3 and 4) or DN mutant (pRc/CMV-STAT-1α) (Y701F) (lanes 5 and 6) and were infected with RSV for 30 minutes after 24 hours of transfection. […] In FIG. 8D, the bands were quantified by densitometry and the relative intensity of phospho-ERK and ERK was determined in each band. […]
Immunoblotting was carried out as previously described (Behera, A. K. et al. Biochem. Biophys. Res. Commun., 1998, 251(3): 704-709). After transfer, membranes were blocked with 5% non-fat dried milk, incubated with antibody to a specific STAT protein or to the corresponding phospho-STAT protein (NEW ENGLAND BIOLABS, Beverly, Mass.), secondary antibody conjugated to horseradish peroxidase was added, and immunocomplexes detected by enhanced chemiluminescence (NEW ENGLAND BIOLABS, Beverly, Mass.). […]

A further data set concerns IκBα. The data set can be described thus: IκBα phosphorylation in RSV-infected A549 cells (immunoblot). To be noted: A549 cells pre-incubated with AG490 (50 μM) or PD98059 for 4 hours, then RSV. In kind it is cell-based, human. As to the method: FIGS. 8A-8D show the effects of inhibitors of phosphorylation of STAT-1α and ERK-1/2. In FIG. 8A, AG490- or PD98059-treated A549 cells were infected with RSV for 15 minutes. Total proteins were Western-blotted using specific anti-phospho antibodies to STAT-1α, ERK-1/2 or IκBα. Lane 1: mock-infected, lanes 2-4: RSV infected for 30 minutes, lane 3: cells treated with 50 μM of AG490 prior to RSV infection, lane 4: cells treated with 25 μM of PD98059 for 4 hours prior RSV infection. In FIG. 8B, the bands were quantified by densitometry and the relative intensity of phosphoSTAT-1α, phospho-ERK and phospho-IκBα with respect to uninfected control (lane 1) was determined. The experiment was repeated twice and the result of a representative experiment is shown. […] In FIG. 8D, the bands were quantified by densitometry and the relative intensity of phospho-ERK and ERK was determined in each band. […]
Whole cell protein extracts were prepared by lysing cells in 50 mM HEPES, 150 mM NaCl, 1 mM EDTA, 1 mM EGTA, 10% glycerol, 0.5% NP-40, 0.1 mM phenylmethylsulfonyl fluoride, 2.5 μg/ml leupeptin, 0.5 mM NaF, and 0.1 mM sodium vanadate. […] The antibody reactions were detected by enhanced chemiluminescence using LUMIGLO (CELL SIGNALLING TECHNOLOGY).

The subject of a further data set is A549 cells. Format: cell-based, human. As to the method: as §1
To rule out the possibility that this effect on viral replication is due to diminished cell proliferation, viable cells were enumerated at 12, 24, 48, and 72 hours after treatment with inhibitors.

A further data set has as its system rgRSV. Nature of the data set: rgRSV infection of primary NHBE cells (fluorescent images). In kind it is cell-based, respiratory syncytial virus. Conditions: AG490 50 μM or PD98059 80 μM 2 hours before rgRSV, images after 16 hours. How it is done: FIGS. 10A-10F show the effects of STAT and ERK-1/2 inhibitors on RSV infection of NHBE cells. NHBE cells were treated with either AG490 (50 μM) (FIGS. 10C and 10D) or PD98059 (80 μM) (FIGS. 10E and 10F) for 2 hours. DMSO was used as a mock control (FIGS. 10A and 10B). After inhibitor removal, cells were infected with rgRSV for 2 hours. Then, rgRSV was removed and growth medium with inhibitors was added to the cells for 16 hours before fluorescent images (DMSO, FIG. 10B; AG490, FIG. 10D; PD98059, FIG. 10F) as well as light transmission images (DMSO, FIG. 10A; AG490, FIG. 10C; PD98059, FIG. 10E) were taken.
RSV A2 strain was obtained from the American Type Culture Collection (ATCC, Rockville, Md., USA). In some experiments, rgRSV (an engineered RSV expressing enhanced green fluorescent protein) was used. A549 cell line, representing type II alveolar epithelial cells, was obtained from the ATCC. The cells were grown at 37° C. in 5% CO2 in RPMI medium, supplemented with 10% fetal bovine serum. Normal human bronchial epithelial cells (NHBE) were obtained from CAMBREX (Walkersville, Md., USA) and grown in serum-free bronchial epithelium growth medium supplemented as indicated by the manufacturer. NHBE at passage 2 and 3 was used for the experiments.
A549 cells were incubated with AG490 (50 μM) or PD98059 (80 μM) for 4 hours at 37° C. and then infected with RSV. […]

The subject of data set [1] is RSV. The data set can be described thus: RSV plaque assay (syncytia-forming plaques, HEp-2 cell-based). Also on record: species or system respiratory syncytial virus. Conditions: A549 cells, AG490 pretreatment, plaques counted 72 hours post-infection. As to the method:
as §1, with “(*p<0.001). […]” for “(*p<0.001).”

A further data set deals with ERK-1/2. The data set can be described thus: ERK-1/2 phosphorylation in RSV-infected A549 cells (immunoblot). Format: cell-based, human. How it is done: Proteins were isolated from untreated cells (lane 1) or cells infected with RSV for 30 minutes (lanes 2-6) after pretreatment of cells for 30 minutes with heparinase (lane 3) or heparin (lane 5), or infected with virus pretreated with heparinase (lane 4) or heparin (lane 6) prior to addition to the cells. Proteins were separated by SDS-PAGE, blotted and probed with anti-phospho ERK-1/2 and then re-probed with anti-ERK-1/2.
FIGS. 8A-8D show the effects of inhibitors of phosphorylation of STAT-1α and ERK-1/2. In FIG. 8A, AG490- or PD98059-treated A549 cells were infected with RSV for 15 minutes. Total proteins were Western-blotted using specific anti-phospho antibodies to STAT-1α, ERK-1/2 or IκBα. Lane 1: mock-infected, lanes 2-4: RSV infected for 30 minutes, lane 3: cells treated with 50 μM of AG490 prior to RSV infection, lane 4: cells treated with 25 μM of PD98059 for 4 hours prior RSV infection. In FIG. 8B, the bands were quantified by densitometry and the relative intensity of phosphoSTAT-1α, phospho-ERK and phospho-IκBα with respect to uninfected control (lane 1) was determined. The experiment was repeated twice and the result of a representative experiment is shown. […] A549 cells were co-transfected with RL-TK plasmid and either the WT (pRc/CMV-STAT-1α) (lanes 3 and 4) or DN mutant (pRc/CMV-STAT-1α) (Y701F) (lanes 5 and 6) and were infected with RSV for 30 minutes after 24 hours of transfection. Total proteins were extracted and Western-blotted using antibodies to phospho-STAT-1α, phospho-ERK-1/2 and re-probed with antibodies to STAT-1α or ERK-1/2. In FIG. 8D, the bands were quantified by densitometry and the relative intensity of phospho-ERK and ERK was determined in each band. […]
Whole cell protein extracts were prepared by lysing cells in 50 mM HEPES, 150 mM NaCl, 1 mM EDTA, 1 mM EGTA, 10% glycerol, 0.5% NP-40, 0.1 mM phenylmethylsulfonyl fluoride, 2.5 μg/ml leupeptin, 0.5 mM NaF, and 0.1 mM sodium vanadate. […] The antibody reactions were detected by enhanced chemiluminescence using LUMIGLO (CELL SIGNALLING TECHNOLOGY). […]

The test system of another data set is HIV-1. To be noted: Yang and Gabuzda 1999; cited from earlier work.
For data set [2], the system named is RSV. The data set can be described thus: Immunofluorescence count of RSV-infected A549 cells. In kind it is cell-based, respiratory syncytial virus. Conditions: A549 cells treated with PD98059, 24 hours of RSV infection, vs control. How it is done:
as §1, with “The values are means SEM (*p<0.001).” left out
In FIG. 9A, PD98059- or DMSO-treated A549 cells were infected with RSV. […] The RSV titers were determined using a HEP-2 cell-based plaque assay as described. […] Twenty-four hours after transfection, A549 cells were infected with RSV for 90 minutes and 24 hours after the % of infected cells was determined with FITC-RSV antibody. […]

Data set [3] concerns RSV. To be noted: treatment of cells; Feldman et al. 1999; cited from earlier work.

Take `N#C/C(=C/c1ccc(O)c(O)c1)C(=O)NCc1ccccc1` [AG490]: the “RSV-induced STAT-1α phosphorylation” value in the data set with STAT-1α was “decrease in RSV-induced STAT-1K phosphorylation”. In the data set on STAT-1α (A549 cells preincubated with AG490 for 4 hours, then supRSV 30 minutes, vs untreated controls), the “phosphorylation of STAT-1α” value is “decreased phosphorylation of STAT-1α”. Moreover, the IκBα phosphorylation entry with IκBα is on record as “decrease”. Besides, the “cytotoxic or anti-proliferative effects (viable cell counts)” value in the data set with A549 cells was “no cytotoxic or anti-proliferative effects”. In the data set on rgRSV, the “number of infected cells” value was “significant reduction in the number of infected cells”. For the same compound, in the data set with RSV [1], the “RSV infection by plaque assay (PFU/ml)” value is reported as “significantly (p<0.001) decreased RSV infection”. In the data set with ERK-1/2 (A549 cells pre-incubated with AG490 50 μM, then RSV), the “ERK activation (phospho-ERK-1/2)” value is “failed to inhibit ERK activation”.
`COc1cccc(-c2cc(=O)c3ccccc3o2)c1N` [PD98059]: the “RSV-induced STAT-1α phosphorylation” value in the data set on STAT-1α is reported as “significantly affected the phosphorylation”. Further, the “infectivity of HIV-1 virions” value in the data set on HIV-1 is reported as “reduced the infectivity of HIV-1 virions”. For the same compound, in the data set with IκBα, the IκBα phosphorylation entry is listed as “significantly affected the phosphorylation”. Besides, the “number of infected cells” value in the data set on rgRSV is recorded as “significant reduction in the number of infected cells”. In addition, the “percentage of infected cells” value in the data set with RSV [2] is given as “decrease in the percentage of infected cells”.
Take heparin: in the data set on STAT-1α (A549 cells or RSV pretreated with heparin 1000 U/ml or heparinase 10 U/ml, RSV 30 minutes), the “RSV-induced activation of STAT-1” value is recorded as “abolished”. In the data set on RSV [3], the RSV infection result is “blocks RSV infection”. Moreover, the “RSV-induced activation of ERK-1/2” value with ERK-1/2 (A549 cells, heparin pretreatment, RSV 30 minutes) is “abolished the RSV-induced activation of ERK-1/2”. In addition, the “ERK-1/2 phosphorylation induced by pretreated RSV” value in the data set on ERK-1/2 (RSV pretreated with heparin or heparinase before addition to A549 cells) is “did not induce ERK-1/2 phosphorylation”.
